Assay results taken from patent US20050148763A1, “Peg-binding pth or peg-binding pth derivative” (Chugai Seiyaku Kabushiki Kaisha, priority 2002, published 2005).
Where two headings read alike, the source gives them in different places.

Tests used:
human PTH1 receptors = biological target: T1, human PTH1 receptors (Homo sapiens, UniProt Q03431); assay: in vitro ability to produce cAMP, HKRK-B7 cells; type: cell-based; conditions: Table 2(1), n=2-3
T1 construct: expressed in transfected cells; host or cells: HKRK-B7 and HKRK-B64 cells (derived from pig kidney LLC-PK1 cells)
T1 sequence (Q03431 27-593): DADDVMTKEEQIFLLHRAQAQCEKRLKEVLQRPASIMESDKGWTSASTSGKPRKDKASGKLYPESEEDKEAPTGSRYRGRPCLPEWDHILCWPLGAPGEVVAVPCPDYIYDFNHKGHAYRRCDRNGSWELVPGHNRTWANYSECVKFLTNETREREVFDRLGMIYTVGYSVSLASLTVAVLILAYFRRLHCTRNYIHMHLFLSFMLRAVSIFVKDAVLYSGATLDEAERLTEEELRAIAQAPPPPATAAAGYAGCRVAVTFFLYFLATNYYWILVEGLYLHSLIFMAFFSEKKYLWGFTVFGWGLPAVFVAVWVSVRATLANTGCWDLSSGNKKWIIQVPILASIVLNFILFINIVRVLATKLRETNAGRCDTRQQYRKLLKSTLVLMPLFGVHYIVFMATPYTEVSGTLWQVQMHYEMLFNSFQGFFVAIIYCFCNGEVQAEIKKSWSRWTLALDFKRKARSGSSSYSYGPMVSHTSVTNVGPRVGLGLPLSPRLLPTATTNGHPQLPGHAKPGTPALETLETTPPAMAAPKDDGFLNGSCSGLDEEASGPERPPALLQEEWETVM
Protocol: Each PEG-PTH sample was assayed for its ability to produce cAMP (indicative of the increasing effect of PTH on bone mass) as follows. […] These cells were seeded in 96-well plates at 1×10^5 cells/well and incubated overnight. […] After removing the reaction solution, the plates were placed on powdered dry ice to freeze the cells and then removed from the dry ice. The cells were thawed with 50 μL of 50 mM HCl and frozen again on dry ice. The level of intracellular cAMP was determined with a commercially available EIA kit (Biotrak cAMP EIA system, Amersham).

[1] = Hypercalcemic effect of PEG-[Cys^35]-PTH(1-35) in normal female DDY mice; type: in vivo; conditions: for Blood iCa level Hour 1: 1 hour after administration; for Blood iCa level Hour 3: 3 hours; for Blood iCa level Hour 6: 6 hours; for Blood iCa level Hour 9: 9 hours; for Blood iCa level Hour 24: 24 hours; for Blood iCa level Hour 0: before administration
Protocol: 2 k, 5 k and 20 k PEG-[Cys^35]-PTH(1-35) were also adjusted similarly to 30, 10 and 2 nmol/mL (calculated as PTH) and allowed to stand on ice immediately before administration.
Using female DDY mice at 6 weeks of age (Japan SLC, Inc.), the corrected level of ionized calcium at pH 7.4 was determined for each sample in the same manner as shown in (1) above. The mice received subcutaneous administration of each drug at a dose of 5 mL/kg. The buffer was administered to a group of 5 mice. […] 150 nmol/kg 2 k, 5 k and 20 k PEG-[Cys^35]-PTH(1-35) were administered to groups of 4 mice each. 50 and 10 nmol/kg 2 k, 5 k and 20 k PEG-[Cys^35]-PTH(1-35) were administered to groups of 5 mice each. At 1, 3, 6, 9 and 24 hours after administration, blood was collected by orbital puncture to monitor the time course of corrected blood ionized calcium levels.

[2] = Hypercalcemic effect of PEG-PTH(1-34) in normal male BDF1 mice; type: in vivo; conditions: sc, hPTH(1-34) 50-500 nmol/kg, PEG-PTHs 150 nmol/kg
Protocol: (§1) 2 k and 5 k PEG-PTH(1-34) were also adjusted similarly to 30 nmol/mL (calculated as PTH) and allowed to stand on ice immediately before administration.
(§2) Male BDF1 mice at 5 weeks of age (Charles River Japan, Inc.) were measured for their body weight. Immediately before drug administration, blood was collected by orbital puncture into heparinized capillary tubes and measured for baseline levels of blood ionized calcium and pH using a Ca^2+/pH analyzer (Model 348/Bayer Medical Ltd.) to give the corrected level of ionized calcium at pH 7.4 for each sample. The mice received subcutaneous administration of each drug at a dose of 5 mL/kg. […] At 1, 3 and 6 hours after administration, blood was collected by orbital puncture to monitor the time course of corrected blood ionized calcium levels.

[3] = Hypercalcemic effect of PEG-PTH(1-34) in normal female DDY mice; type: in vivo; conditions: sc, hPTH(1-34) 50-500 nmol/kg, 5 k PEG-PTH(1-34) 150 nmol/kg
Protocol: as §1, §2
The same experiment was repeated on female DDY mice at 5 weeks of age (Charles River Japan, Inc.). The mice received subcutaneous administration of each drug at a dose of 5 mL/kg. […] At 1, 3 and 6 hours after administration, blood was collected by orbital puncture to monitor the time course of corrected blood ionized calcium levels.

[4] = clinical trial, cited from earlier work

Row | Molecule | Blood iCa level Hour 1 ([1]; 50 nmol/kg sc) [mM] | Blood iCa level Hour 3 ([1]; 50 nmol/kg sc) [mM] | Blood iCa level Hour 6 ([1]; 50 nmol/kg sc) [mM] | Blood iCa level Hour 9 ([1]; 50 nmol/kg sc) [mM] | Blood iCa level Hour 24 ([1]; 50 nmol/kg sc) [mM] | Blood iCa level Hour 0 ([1]; 50 nmol/kg sc) [mM] | Blood iCa level Hour 1 ([1]; 150 nmol/kg sc) [mM] | Blood iCa level Hour 3 ([1]; 150 nmol/kg sc) [mM] | Blood iCa level Hour 6 ([1]; 150 nmol/kg sc) [mM] | Blood iCa level Hour 9 ([1]; 150 nmol/kg sc) [mM] | Blood iCa level Hour 24 ([1]; 150 nmol/kg sc) [mM] | Blood iCa level Hour 0 ([1]; 150 nmol/kg sc) [mM] | time of maximum increase in blood ionized calcium levels after administration ([1]; female DDY mice, sc) [h] | also measured
1 | 2 k PEG-[Cys^35]-hPTH(1-35): [Cys^35]-PTH(1-35) conjugated with mPEG 2 k-MAL (2 kDa methoxy-PEG-maleimide) at the C-terminal cysteine (SVSEIQLMHNLGKHLNSMERVEWLRKKLQDVHNFC; Parathyroid hormone 2 kDa mPEG-maleimide at Cys35; UniProt P01270 32-66, looked up, variant V35C) | 1.41 ± 0.02 | 1.47 ± 0.03 | 1.47 ± 0.02 | 1.29 ± 0.05 | 1.34 ± 0.03 | 1.27 ± 0.03 | 1.44 ± 0.02 | 1.47 ± 0.05 | 1.48 ± 0.05 | 1.26 ± 0.02 | 1.34 ± 0.03 | 1.32 ± 0.02 | 3 | Maximum cAMP response (human PTH1 receptors): 109.3 ± 10.1 pmol/well; EC50 (human PTH1 receptors; cAMP production): 0.5 nM; Blood iCa level Hour 1 ([1]; 10 nmol/kg sc): 1.44 ± 0.03 mM; Blood iCa level Hour 3 ([1]; 10 nmol/kg sc): 1.48 ± 0.02 mM; Blood iCa level Hour 6 ([1]; 10 nmol/kg sc): 1.39 ± 0.02 mM; Blood iCa level Hour 9 ([1]; 10 nmol/kg sc): 1.32 ± 0.04 mM; Blood iCa level Hour 24 ([1]; 10 nmol/kg sc): 1.37 ± 0.02 mM; Blood iCa level Hour 0 ([1]; 10 nmol/kg sc): 1.30 ± 0.04 mM; increased blood ionized calcium level maintained until ([1]; female DDY mice, sc): 6 h
2 | CC[C@H](C)[C@H](NC(=O)[C@H](CCC(=O)O)NC(=O)[C@H](CO)NC(=O)[C@@H](NC(=O)[C@@H](N)CO)C(C)C)C(=O)N[C@@H](CCC(N)=O)C(=O)N[C@@H](CC(C)C)C(=O)N[C@@H](CCSC)C(=O)N[C@@H](Cc1cnc[nH]1)C(=O)N[C@@H](CC(N)=O)C(=O)N[C@@H](CC(C)C)C(=O)NCC(=O)N[C@@H](CCCCN)C(=O)N[C@@H](Cc1cnc[nH]1)C(=O)N[C@@H](CC(C)C)C(=O)N[C@@H](CC(N)=O)C(=O)N[C@@H](CO)C(=O)N[C@@H](CCSC)C(=O)N[C@@H](CCC(=O)O)C(=O)N[C@@H](CCCN=C(N)N)C(=O)N[C@H](C(=O)N[C@@H](CCC(=O)O)C(=O)N[C@@H](Cc1c[nH]c2ccccc12)C(=O)N[C@@H](CC(C)C)C(=O)N[C@@H](CCCN=C(N)N)C(=O)N[C@@H](CCCCN)C(=O)N[C@@H](CCCCN)C(=O)N[C@@H](CC(C)C)C(=O)N[C@@H](CCC(N)=O)C(=O)N[C@@H](CC(=O)O)C(=O)N[C@H](C(=O)N[C@@H](Cc1cnc[nH]1)C(=O)N[C@@H](CC(N)=O)C(=O)N[C@@H](Cc1ccccc1)C(=O)O)C(C)C)C(C)C [hPTH(1-34), reference compound] | 1.45 ± 0.03 | 1.43 ± 0.03 | 1.33 ± 0.02 | 1.27 ± 0.05 | 1.36 ± 0.02 | 1.31 ± 0.03 | 1.46 ± 0.02 | 1.48 ± 0.03 | 1.36 ± 0.02 | 1.32 ± 0.04 | 1.36 ± 0.03 | 1.33 ± 0.03 | 3 | time of maximum increase in blood ionized calcium levels after administration [2]: one; time of maximum increase in blood ionized calcium levels after administration [3]: 3 h; nausea and headache as side effects (in words) ([4]; dose of 20 μg): same frequency as observed in the placebo group; nausea and headache as side effects (in words) ([4]; dose of 40 μg): caused nausea and headache as side effects at a statistically significant level; Blood iCa level Hour 1 ([1]; 500 nmol/kg sc): 1.44 ± 0.04 mM; Blood iCa level Hour 3 ([1]; 500 nmol/kg sc): 1.46 ± 0.04 mM; Blood iCa level Hour 6 ([1]; 500 nmol/kg sc): 1.43 ± 0.01 mM; Blood iCa level Hour 9 ([1]; 500 nmol/kg sc): 1.27 ± 0.04 mM; Blood iCa level Hour 24 ([1]; 500 nmol/kg sc): 1.39 ± 0.02 mM; Blood iCa level Hour 0 ([1]; 500 nmol/kg sc): 1.34 ± 0.03 mM
